Results from patent US10980232B2, “Herbicidal composition comprising cinmethylin and pyroxasulfone” (BASF Agro B.V., priority 2015, dated 2021).

How the values were obtained:
Type in all cases: in vivo
[1] = system: LOLMU (Lolium multiflorum); test: Greenhouse postemergence herbicidal activity, LOLMU; conditions: 20 DAT
Protocol: (§1) The test plants have been seeded, separately for each species, in plastic containers in sandy loamy soil containing 5% of organic matter.
(§2) For the post emergence treatment, the plants were first grown to the 2 leaf station (GS 12). Here, the herbicidal compositions were suspended or emulsified in water as distribution medium and sprayed using finely distributing nozzels.
(§3) The plants have been cultivated due to their individual requirements at 10-25° C. and 20-35° C. The plants were irrigated due to their necessity.
(§4) The racemic mixture (±)-2-exo-(2-Methylbenzyloxy)-1-methyl-4-isopropyl-7-oxabicyclo[2.2.1]heptane was used as herbicide A and formulated as emulsifiable concentrates with an active ingredient concentration of 50 g/l, 100 g/l or 750 g/l respectively.
(§5) Pyroxasulfone (herbicide B) was used as a water dispersible granule (85% WG).
(§6) In the following experiments, the herbicidal activity for the individual herbicidal compositions (solo and mixture applications) was assessed 20 days after treatment (DAT).
(§7) The evaluation for the damage on undesired weeds caused by the chemical compositions was carried out using a scale from 0 to 100%, compared to the untreated control plants. Here, 0 means no damage and 100 means complete destruction of the plants.
(§8) E=X+Y−(X·Y/100) where X=effect in percent using herbicide A at an application rate a; • Y=effect in percent using herbicide B at application rate b; • E=expected effect (in %) of herbicide A+herbicide B at application rates a+b.
(§9) The value E corresponds to the effect (plant damage or injury) which is to be expected if the activity of the individual compounds is additive. If the observed effect is higher than the value E calculated according to the Colby equation, a synergistic effect is present.

GALAP (Galium aparine) = test: Greenhouse preemergence herbicidal activity, GALAP; conditions: 20 DAT
Protocol: as §1
(§10) The containers were irrigated gently to promote germination and growth and subsequently covered with transparent plastic hoods until the plants had rooted.
as §3, §4, §5, §6, §7, §8, §9

[2] = system: POLCO (Polygonum convolvulus); test: Greenhouse preemergence herbicidal activity, POLCO; conditions: 20 DAT
Protocol: as §1, §10, §3, §4, §5, §6, §7, §8, §9

[3] = system: AMARE (Amaranthus retroflexus); test: Greenhouse postemergence herbicidal activity, AMARE; conditions: pyroxasulfone solo 45 g ai/ha, 20 DAT
Protocol: as §1, §2, §3, §4, §5
(§11) In the following experiments, the herbicidal activity for the individual herbicidal compositions (solo and mixture applications) was assessed 20 days after treatment (DAT). […]
as §9

STEME (Stellaria media) [4] = test: Greenhouse preemergence herbicidal activity, STEME; conditions: 20 DAT
Protocol: as §1, §10, §3, §4, §5, §6, §7, §8, §9

[5] = system: SORHA (Sorghum halepense); test: Greenhouse postemergence herbicidal activity, SORHA; conditions: pyroxasulfone solo 11.25 g ai/ha, 20 DAT
Protocol: as §1, §2, §3, §4, §5, §11, §9

[6] = system: GERDI (Geranium dissectum); test: Greenhouse preemergence herbicidal activity, GERDI; conditions: 20 DAT
Protocol: as §1, §10, §3, §4, §5, §6, §7, §8, §9

[7] = system: POLCO (Polygonum convolvulus); test: Greenhouse postemergence herbicidal activity, POLCO; conditions: pyroxasulfone solo 45 g ai/ha, 20 DAT
Protocol: as §1, §2, §3, §4, §5, §11, §9

STEME (Stellaria media) [8] = test: Greenhouse postemergence herbicidal activity, STEME; conditions: 20 DAT
Protocol: as §1, §2, §3, §4, §5, §6, §7, §8, §9

[9] = system: ABUTH (Abutilon theoprasti); test: Greenhouse preemergence herbicidal activity, ABUTH; conditions: 20 DAT
Protocol: as §1, §10, §3, §4, §5, §6, §7, §8, §9

[10] = system: ANTAR (Anthemis arvensis); test: Greenhouse postemergence herbicidal activity, ANTAR; conditions: 20 DAT
Protocol: as §1, §2, §3, §4, §5, §6, §7, §8, §9

[11] = system: CHEAL (Chenopodium album); test: Greenhouse postemergence herbicidal activity, CHEAL; conditions: 20 DAT
Protocol: as §1, §2, §3, §4, §5, §6, §7, §8, §9

[12] = system: AMARE (Amaranthus retroflexus); test: Greenhouse preemergence herbicidal activity, AMARE; conditions: pyroxasulfone solo 10 g ai/ha, 20 DAT
Protocol: as §1, §10, §3, §4, §5, §6
The evaluation for the damage on undesired weeds caused by the chemical compositions was carried out using a scale from 0 to 100%, compared to the untreated control plants. […]
as §9

[13] = system: ANTAR (Anthemis arvensis); test: Greenhouse preemergence herbicidal activity, ANTAR; conditions: 20 DAT
Protocol: as §1, §10, §3, §4, §5, §6, §7, §8, §9

[14] = system: LOLMU (Lolium multiflorum); test: Greenhouse preemergence herbicidal activity, LOLMU; conditions: 20 DAT
Protocol: as §1, §10, §3, §4, §5, §6, §7, §8, §9

AVEFA (Avena fatua) [15] = test: Greenhouse postemergence herbicidal activity, AVEFA; conditions: 20 DAT
Protocol: as §1, §2, §3, §4, §5, §6, §7, §8, §9

[16] = system: CHEAL (Chenopodium album); test: Greenhouse preemergence herbicidal activity, CHEAL; conditions: 20 DAT
Protocol: as §1, §10, §3, §4, §5, §6, §7, §8, §9

AVEFA (Avena fatua) [17] = test: Greenhouse preemergence herbicidal activity, AVEFA; conditions: 20 DAT
Protocol: as §1, §10, §3, §4, §5, §6, §7, §8, §9

[18] = pyroxasulfone solo 11.25 g ai/ha
[19] = pyroxasulfone solo 22.5 g ai/ha

For `Cn1nc(C(F)(F)F)c(CS(=O)(=O)C2=NOC(C)(C)C2)c1OC(F)F` [pyroxasulfone, 3-[5-(difluoromethoxy)-1-methyl-3-(trifluoromethyl)pyrazol-4-ylmethylsulfonyl]-4,5-dihydro-5,5-dimethyl-1,2-oxazole], the herbicidal activity [1, 18] was 55%, the herbicidal activity ([1]; pyroxasulfone solo 15 g ai/ha) was 70% and the herbicidal activity [1, 19] was 55%. For the same molecule, the herbicidal activity (GALAP (Galium aparine); pyroxasulfone solo 10 g ai/ha) was 30%, the herbicidal activity (GALAP (Galium aparine); pyroxasulfone solo 15 g ai/ha) was 0% and the herbicidal activity (GALAP (Galium aparine); pyroxasulfone solo 20 g ai/ha) was 70%. The herbicidal activity (GALAP (Galium aparine); pyroxasulfone solo 80 g ai/ha) was 98%, the herbicidal activity ([2]; pyroxasulfone solo 15 g ai/ha) was 0% and the herbicidal activity ([2]; pyroxasulfone solo 20 g ai/ha) was 0%. The herbicidal activity ([2]; pyroxasulfone solo 30 g ai/ha) was 20%, the herbicidal activity ([2]; pyroxasulfone solo 60 g ai/ha) was 80% and the herbicidal activity ([2]; pyroxasulfone solo 80 g ai/ha) was 80%. It also gave a herbicidal activity ([2]; pyroxasulfone solo 120 g ai/ha) of 90%, a herbicidal activity [3] of 25% and a herbicidal activity (STEME (Stellaria media) [4]; pyroxasulfone solo 10 g ai/ha) of 75%. For the same molecule, the herbicidal activity (STEME (Stellaria media) [4]; pyroxasulfone solo 15 g ai/ha) was 98%, the herbicidal activity (STEME (Stellaria media) [4]; pyroxasulfone solo 30 g ai/ha) was 98% and the herbicidal activity [5] was 70%. The herbicidal activity ([6]; pyroxasulfone solo 30 g ai/ha) was 75%, the herbicidal activity ([6]; pyroxasulfone solo 40 g ai/ha) was 75% and the herbicidal activity [7] was 80%. The herbicidal activity (STEME (Stellaria media) [8]; [18]) was 0%, the herbicidal activity (STEME (Stellaria media) [8]; pyroxasulfone solo 15 g ai/ha) was 40% and the herbicidal activity (STEME (Stellaria media) [8]; [19]) was 0%. It also gave a herbicidal activity (STEME (Stellaria media) [8]; pyroxasulfone solo 45 g ai/ha) of 45%, a herbicidal activity (STEME (Stellaria media) [8]; pyroxasulfone solo 60 g ai/ha) of 80% and a herbicidal activity ([9]; pyroxasulfone solo 10 g ai/ha) of 0%. The herbicidal activity ([9]; pyroxasulfone solo 20 g ai/ha) was 30%, the herbicidal activity ([9]; pyroxasulfone solo 30 g ai/ha) was 50% and the herbicidal activity ([9]; pyroxasulfone solo 60 g ai/ha) was 50%. For the same molecule, the herbicidal activity ([9]; pyroxasulfone solo 120 g ai/ha) was 98%, the herbicidal activity ([10]; pyroxasulfone solo 15 g ai/ha) was 40% and the herbicidal activity ([10]; pyroxasulfone solo 60 g ai/ha) was 90%. For the same molecule, the herbicidal activity [11, 18] was 80%, the herbicidal activity ([11]; pyroxasulfone solo 15 g ai/ha) was 85% and the herbicidal activity [11, 19] was 65%. It also gave a herbicidal activity ([11]; pyroxasulfone solo 45 g ai/ha) of 85%, a herbicidal activity ([11]; pyroxasulfone solo 90 g ai/ha) of 95% and a herbicidal activity ([11]; pyroxasulfone solo 120 g ai/ha) of 95%. For the same molecule, the herbicidal activity [12] was 95%, the herbicidal activity ([13]; pyroxasulfone solo 15 g ai/ha) was 20% and the herbicidal activity ([13]; pyroxasulfone solo 20 g ai/ha) was 60%. It also gave a herbicidal activity ([13]; pyroxasulfone solo 30 g ai/ha) of 85%, a herbicidal activity ([13]; pyroxasulfone solo 40 g ai/ha) of 70% and a herbicidal activity ([13]; pyroxasulfone solo 60 g ai/ha) of 95%. For the same molecule, the herbicidal activity ([13]; pyroxasulfone solo 80 g ai/ha) was 75%, the herbicidal activity ([14]; pyroxasulfone solo 10 g ai/ha) was 80% and the herbicidal activity ([14]; pyroxasulfone solo 15 g ai/ha) was 98%. For the same molecule, the herbicidal activity (AVEFA (Avena fatua) [15]; [18]) was 50%, the herbicidal activity (AVEFA (Avena fatua) [15]; [19]) was 50% and the herbicidal activity ([16]; pyroxasulfone solo 10 g ai/ha) was 50%. It also gave a herbicidal activity ([16]; pyroxasulfone solo 20 g ai/ha) of 90%, a herbicidal activity (AVEFA (Avena fatua) [17]; pyroxasulfone solo 10 g ai/ha) of 60% and a herbicidal activity (AVEFA (Avena fatua) [17]; pyroxasulfone solo 15 g ai/ha) of 65%. It also gave a herbicidal activity (AVEFA (Avena fatua) [17]; pyroxasulfone solo 20 g ai/ha) of 75%, a herbicidal activity (AVEFA (Avena fatua) [17]; pyroxasulfone solo 30 g ai/ha) of 80% and a herbicidal activity (AVEFA (Avena fatua) [17]; pyroxasulfone solo 40 g ai/ha) of 80%. The herbicidal activity (AVEFA (Avena fatua) [17]; pyroxasulfone solo 60 g ai/ha) was 95%.
